This is an account of results in ChEMBL document CHEMBL5154903 (J Med Chem, 2022).

Activity calls are given as the source filed them. The rule behind the calls is not given here.

The target in one data set is Egl nine homolog 1 (Homo sapiens, UniProt Q9GZT9). Put plainly: Inhibition of PHD2 (unknown origin) at 5 uM incubated for 15 mins by competitive fluorescence polarization assay relative to control.
Another data set has as its target CYP2C9 (Homo sapiens, UniProt P11712). Kind of data set: Inhibition of CYP2C9 in human liver microsomes at 10 uM incubated for 10 mins by LC-MS/MS analysis relative to control. In kind it is ADME, Microsome.
The nature of data set [1]: AUC (0 to infinity) in overnight fasted Sprague-Dawley rat at 5 mg/kg, iv measured upto 24 hrs. It counts as ADME, organism-based. Also noted: dose 5 mg/kg, time < 24 hrs, route iv. The settings on record: in vivo.
Data set [2] can be described thus: Oral bioavailability in overnight fasted Sprague-Dawley rat at 5 mg/kg measured upto 24 hrs. It counts as ADME, organism-based. As to conditions: in vivo.
A further data set deals with MCF7. Put plainly: Cytotoxicity against human MCF7 cells assessed as reduction in cell viability at 10 uM incubated for 72 to 96 hrs by Celltiter-Glo assay. In kind it is toxicity, cell-based. The settings on record: mcf7, 10 µM, time 72-96 hrs. (In general: ATP-based viability assays read luminescence as a measure of living cells.)
The target of another data set is CYP2C8 (Homo sapiens, UniProt P10632). Put plainly: Inhibition of CYP2C8 in human liver microsomes at 10 uM incubated for 20 mins by LC-MS/MS analysis relative to control. It counts as ADME, Microsome. Background: Liver microsomes are a subcellular fraction often used to study metabolism.
For data set [3], the system named is HepG2. Kind of data set: Inhibition of lipid metabolism in human HepG2 cells assessed as increase in CPT1 levels at 10 uM incubated for 24 hrs by Western blot analysis. It counts as functional, cell-based. (In general: Immunoblotting shows a protein as a band on a membrane.)
For a further data set, the system named is HFL1. Kind of data set: Cytotoxicity against human HFL1 cells assessed as reduction in cell viability at 10 uM incubated for 72 to 96 hrs by Celltiter-Glo assay. It counts as toxicity, cell-based. As to conditions: hfl1, 10 µM, time 72-96 hrs.
The subject of data set [4] is HepG2. Put plainly: Cytotoxicity against human HepG2 cells assessed as reduction in cell viability at 10 uM incubated for 72 to 96 hrs by Celltiter-Glo assay. It counts as toxicity, cell-based. As to conditions: hepg2, 10 µM, time 72-96 hrs.
Data set [5] can be described thus: Half life in overnight fasted Sprague-Dawley rat at 5 mg/kg, po measured upto 24 hrs. As to conditions: in vivo. In kind it is ADME, organism-based.
Data set [6] concerns HepG2. Kind of data set: Induction of mitochondrial uncoupled respiration in human HepG2 cells assessed as increase in oxygen consumption rate at 10 uM measured after 24 hrs by Seahorse XFe96 flux analyzer. It counts as functional, cell-based.
Another data set concerns the target CYP1A2 (Homo sapiens, UniProt P05177). Put plainly: Inhibition of CYP1A2 in human liver microsomes at 10 uM incubated for 10 mins by LC-MS/MS analysis relative to control. In kind it is ADME, Microsome.
Data set [7] is described as follows: Clearance in overnight fasted Sprague-Dawley rat at 5 mg/kg, iv measured upto 24 hrs. In kind it is ADME, organism-based. As to conditions: in vivo.
In a further data set the target is CYP2B6 (Homo sapiens, UniProt P20813). Kind of data set: Inhibition of CYP2B6 in human liver microsomes at 10 uM incubated for 10 mins by LC-MS/MS analysis relative to control. In kind it is ADME, Microsome.
The subject of data set [8] is HepG2. Put plainly: Inhibition of lipid metabolism in human HepG2 assessed as reduction in intracellular tryglyceride level at 1 to 10 uM incubated for 24 hrs. It counts as functional, cell-based. As to conditions: dose 1-10 µM.
The next data set deals with CYP2C19 (Homo sapiens, UniProt P33261). Put plainly: Inhibition of CYP2C19 in human liver microsomes at 10 uM incubated for 45 mins by LC-MS/MS analysis relative to control. In kind it is ADME, Microsome.
CYP2C19, sequence (P33261 whole entry): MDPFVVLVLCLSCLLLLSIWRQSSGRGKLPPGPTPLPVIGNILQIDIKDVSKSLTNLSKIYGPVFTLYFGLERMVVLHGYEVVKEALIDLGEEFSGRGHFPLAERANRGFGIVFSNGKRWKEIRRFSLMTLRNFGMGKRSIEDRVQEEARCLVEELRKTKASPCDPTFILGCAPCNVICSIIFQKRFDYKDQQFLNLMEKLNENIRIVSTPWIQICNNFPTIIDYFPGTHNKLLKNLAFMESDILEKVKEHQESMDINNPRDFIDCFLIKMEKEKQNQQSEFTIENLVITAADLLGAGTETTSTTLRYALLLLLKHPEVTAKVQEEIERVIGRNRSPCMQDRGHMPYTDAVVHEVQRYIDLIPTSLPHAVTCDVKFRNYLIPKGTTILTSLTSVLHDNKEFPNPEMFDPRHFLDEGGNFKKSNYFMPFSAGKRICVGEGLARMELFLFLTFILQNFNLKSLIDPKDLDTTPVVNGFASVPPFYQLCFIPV

CYP1A2, sequence (P05177 whole entry): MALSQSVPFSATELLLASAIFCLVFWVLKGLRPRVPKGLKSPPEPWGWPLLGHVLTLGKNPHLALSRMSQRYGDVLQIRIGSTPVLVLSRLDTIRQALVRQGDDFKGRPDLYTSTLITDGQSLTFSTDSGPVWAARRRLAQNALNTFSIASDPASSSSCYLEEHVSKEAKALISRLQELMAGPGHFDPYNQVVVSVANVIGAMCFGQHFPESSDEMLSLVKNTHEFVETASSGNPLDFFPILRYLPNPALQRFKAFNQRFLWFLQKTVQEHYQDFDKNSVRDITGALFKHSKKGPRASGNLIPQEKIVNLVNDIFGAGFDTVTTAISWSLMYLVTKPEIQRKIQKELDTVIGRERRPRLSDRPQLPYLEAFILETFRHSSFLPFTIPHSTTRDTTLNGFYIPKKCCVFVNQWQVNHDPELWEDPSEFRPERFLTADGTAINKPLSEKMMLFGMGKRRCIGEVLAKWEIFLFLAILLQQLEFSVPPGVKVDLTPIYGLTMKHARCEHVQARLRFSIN
Egl nine homolog 1, sequence (Q9GZT9 2-426 limits assumed): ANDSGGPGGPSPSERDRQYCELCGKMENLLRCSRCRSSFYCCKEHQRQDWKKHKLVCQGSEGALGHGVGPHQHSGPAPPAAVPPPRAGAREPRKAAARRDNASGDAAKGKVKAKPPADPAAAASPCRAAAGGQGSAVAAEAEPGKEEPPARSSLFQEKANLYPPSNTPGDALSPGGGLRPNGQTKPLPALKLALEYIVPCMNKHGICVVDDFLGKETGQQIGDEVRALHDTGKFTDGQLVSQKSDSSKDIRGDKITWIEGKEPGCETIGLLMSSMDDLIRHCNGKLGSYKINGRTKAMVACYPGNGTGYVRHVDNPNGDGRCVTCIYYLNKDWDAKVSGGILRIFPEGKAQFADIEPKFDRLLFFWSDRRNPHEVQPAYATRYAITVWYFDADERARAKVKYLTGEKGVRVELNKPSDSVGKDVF
CYP2C9, sequence (P11712 whole entry): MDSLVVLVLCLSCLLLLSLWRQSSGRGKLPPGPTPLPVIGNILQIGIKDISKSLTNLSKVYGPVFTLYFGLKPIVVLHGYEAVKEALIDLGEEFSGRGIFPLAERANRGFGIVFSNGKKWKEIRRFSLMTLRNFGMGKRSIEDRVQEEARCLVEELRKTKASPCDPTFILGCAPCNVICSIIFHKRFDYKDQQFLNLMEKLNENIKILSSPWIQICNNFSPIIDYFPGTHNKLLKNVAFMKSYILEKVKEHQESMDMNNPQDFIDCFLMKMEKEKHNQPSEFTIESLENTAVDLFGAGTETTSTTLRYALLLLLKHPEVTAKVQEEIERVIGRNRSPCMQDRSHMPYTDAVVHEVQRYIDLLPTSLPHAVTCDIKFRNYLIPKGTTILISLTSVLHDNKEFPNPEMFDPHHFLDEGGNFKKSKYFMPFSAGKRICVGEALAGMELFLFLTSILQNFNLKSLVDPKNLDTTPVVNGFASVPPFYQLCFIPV
CYP2C8, sequence (P10632 whole entry): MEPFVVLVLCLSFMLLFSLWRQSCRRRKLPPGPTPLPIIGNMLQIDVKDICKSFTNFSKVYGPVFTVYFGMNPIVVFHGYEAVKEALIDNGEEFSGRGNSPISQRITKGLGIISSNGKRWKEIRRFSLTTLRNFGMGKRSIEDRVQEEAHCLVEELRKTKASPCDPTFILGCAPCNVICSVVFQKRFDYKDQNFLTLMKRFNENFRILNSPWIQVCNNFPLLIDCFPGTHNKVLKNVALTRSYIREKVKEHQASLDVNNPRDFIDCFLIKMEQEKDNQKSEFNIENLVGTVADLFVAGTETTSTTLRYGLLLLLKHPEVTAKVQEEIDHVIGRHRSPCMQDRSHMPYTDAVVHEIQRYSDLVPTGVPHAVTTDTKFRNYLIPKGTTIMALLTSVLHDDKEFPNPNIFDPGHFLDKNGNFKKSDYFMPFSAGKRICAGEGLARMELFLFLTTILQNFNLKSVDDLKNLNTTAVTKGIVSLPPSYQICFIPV
CYP2B6, sequence (P20813 whole entry): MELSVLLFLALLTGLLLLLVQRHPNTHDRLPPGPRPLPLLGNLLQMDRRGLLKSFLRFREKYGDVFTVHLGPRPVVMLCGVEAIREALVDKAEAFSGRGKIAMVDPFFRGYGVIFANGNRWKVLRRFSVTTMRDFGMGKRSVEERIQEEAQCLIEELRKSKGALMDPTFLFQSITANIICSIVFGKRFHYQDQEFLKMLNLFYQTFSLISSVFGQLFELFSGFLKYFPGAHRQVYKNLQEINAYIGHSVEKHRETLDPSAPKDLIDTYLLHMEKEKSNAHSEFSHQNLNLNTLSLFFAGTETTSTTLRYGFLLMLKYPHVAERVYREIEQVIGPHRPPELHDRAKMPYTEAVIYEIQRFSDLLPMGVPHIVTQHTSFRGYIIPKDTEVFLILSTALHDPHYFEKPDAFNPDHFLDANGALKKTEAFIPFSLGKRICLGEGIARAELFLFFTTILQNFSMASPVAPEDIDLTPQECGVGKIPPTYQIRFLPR

Take `COc1cc(F)cc(C(=O)c2cc(C)c(Oc3ccc4c(O)c(C(=O)NCC(=O)O)nc(OC)c4c3)c(C)c2)c1`: the inhibition (as a rule, the percentage by which the read-out fell short of the control) at Egl nine homolog 1 turned out to be 4.8%. Also, the inhibition at 10 min, 10 µM against CYP2C9 was 18.4%; against CYP1A2, 1.67%; against CYP2B6, 15.2%. The AUC(0-inf) (commonly the area under the concentration-time curve extrapolated to infinity) in data set [1] is 10900 ng·h/mL. The bioavailability (usually the share of a dose that reaches the circulation, judged against a reference dose that is usually intravenous) in [2] worked out at 57.3%. The Activity result in the data set on MCF7, with HFL1 and in the data set on HepG2 [4] was “Non-Toxic” each time. On CYP2C8, this compound registered an inhibition at 20 min, 10 µM of 26.3%. The inhibition entry with HepG2 [3] and in the data set on HepG2 [8] was “Active” in each case. Moreover, in data set [5], the half-life (in general, how long it takes for the measured level to halve) was 2.58 h. Further, in the data set on HepG2 [6], the outcome was Active. The clearance (usually the rate of elimination divided by the concentration) in [7] worked out at 7.83 mL/min/kg. At CYP2C19, the inhibition at 0.75 h, 10 µM stood at 12%.
